Data set [1] has as its system Yellowfever Mosquito (Aedes aegyptii) Larvae. The data set can be described thus: Activity against mosquito larvae via water treatment. The data set is classed as in vivo. As to conditions: read-out: mortality of yellowfever mosquito. The method, then: 11. Activity Against Yellowfever Mosquito (Aedes aegyptii), House Mosquito (Culex quinquefasciatus) and Malaria Mosquito (Anopheles albimanus) Larvae Via Water Treatment
Well plates were used as test arenas. The active ingredient was dissolved in acetone and diluted with water to obtain the concentrations needed. The final solutions containing appr. 1% acetone were placed into each well. Approximately 10 mosquito larvae (4th-instars) in 1 ml water were added to each well. Larvae were fed one drop of liver powder each day. The dishes were covered and maintained at 22° C. Mortality was recorded daily and dead larvae and live or dead pupae were removed daily. At the end of the test remaining live larvae were recorded and percent mortality was calculated.

The subject of data set [2] is Oat Aphid (Rhopalosiphum padi). The experiment in a line: Activity against oat aphid, barley leaf disks. It is filed as in vivo. As to conditions: 2500 ppm; leaf disks sprayed with 2.5 μl; 5 days; compared to 0% mortality of untreated controls. The method, then: Barlay leaf disk were placed into microtiterplates filled with 0.8% agar-agar and 2.5 ppm OPUS™. The leaf disks were sprayed with 2.5 μl of the test solution and 3 to 8 adult aphids were placed into the microtiterplates which were then closed and kept at 22-24° C. and 35-45% humidity under fluorescent light for 5 days. Mortality was assessed on the basis of vital aphids. Tests were replicated 2 times.

Data set [3] relates to Silverleaf Whitefly (Bemisia argentifolii). The data set can be described thus: Activity against silverleaf whitefly, cotton cotyledon dip. It is filed as in vivo. As to conditions: 72 h, cotyledons dipped, adults, 3 days after treatment. The procedure:
(§1) The active compounds were formulated in 50:50 acetone:water and 100 ppm Kinetic™ surfactant.
Selected cotton plants were grown to the cotyledon state (one plant per pot). The cotyledons were dipped into the test solution to provide complete coverage of the foliage and placed in a well-vented area to dry. Each pot with treated seedling was placed in a plastic cup and 10 to 12 whitefly adults (approximately 3-5 day old) were introduced. The insects were collected using an aspirator and an 0.6 cm, non-toxic Tygon™ tubing (R-3603) connected to a barrier pipette tip. The tip, containing the collected insects, was then gently inserted into the soil containing the treated plant, allowing insects to crawl out of the tip to reach the foliage for feeding. The cups were covered with a reusable screened lid (150 micron mesh polyester screen PeCap from Tetko Inc). Test plants were maintained in the holding room at about 25° C. and 20-40% relative humidity for 3 days avoiding direct exposure to the fluorescent light (24 hour photoperiod) to prevent trapping of heat inside the cup. Mortality was assessed 3 days after treatment of the plants.

Data set [4] deals with Cotton Aphid (Aphis gossypii). The experiment in a line: Activity against cotton aphid, cotton cotyledon dip. It is filed as in vivo. As to conditions: 120 h, cotyledons dipped, after 5 days.
Excerpt: as §1
Cotton plants at the cotyledon stage (one plant per pot) were infested by placing a heavily infested leaf from the main colony on top of each cotyledon. The aphids were allowed to transfer to the host plant overnight, and the leaf used to transfer the aphids was removed. The cotyledons were dipped in the test solution and allowed to dry. After 5 days, mortality counts were made.

Data set [5] deals with Tobacco Budworm (Heliothis virescens). The data set can be described thus: whole plant or invertebrate. As to conditions: 144 h.
Data set [6] concerns Southern Armyworm (Spodoptera eridania), 2nd Instar Larvae. The experiment in a line: whole plant or invertebrate. It is filed as in vivo. Conditions: in Phaseolus lunatus, foliar, 120 h, 300 ppm, leaf dipped, at 5 days, read-out: mortality. The procedure: The active compounds were formulated for testing the activity against insects and arachnids as a 10.000 ppm solution in a mixture of 35% acetone and water, which was diluted with water, if needed.
A Sieva lima bean leaf was dipped in the test solution and allowed to dry. The leaf was then placed in a petri dish containing a filter paper on the bottom and ten 2nd instar caterpillars. At 5 days, observations are made of mortality and reduced feeding.

Data set [7] has as its system Boll Weevil (Anthonomus grandis). The experiment in a line: Activity against boll weevil, eggs in microtiterplates. It is filed as in vivo. Conditions: eggs sprayed with 20 μl test solution, 3 to 5 days. The procedure: 10 to 15 eggs were placed into microtiterplates filled with 2% agar-agar in water and 300 ppm formaline. […] Mortality was assessed on the basis of the remaining unhatched eggs or larvae on the agar surface and/or quantity and depth of the digging channels caused by the hatched larvae. Tests were replicated 2 times.

Data set [8] concerns Vetch Aphid (Megoura viciae). The experiment in a line: Activity against vetch aphid, bean leaf disks. The data set is classed as in vivo. Conditions: foliar, 144 h, 2500 ppm, leaf disks sprayed with 2.5 μl, 6 days, compared to 0% mortality of untreated controls, read-out: mortality. The procedure: Bean leaf disks were placed into microtiterplates filled with 0.8% agar-agar and 2.5 ppm OPUS™. The leaf disks were sprayed with 2.5 μl of the test solution and 5 to 8 adult aphids were placed into the microtiterplates which were then closed and kept at 22-24° C. and 35-45% under fluorescent light for 6 days. Mortality was assessed on the basis of vital, reproduced aphids. Tests were replicated 2 times.

Data set [9] deals with Yellowfever Mosquito (Aedes aegyptii). The experiment in a line: Activity via glass contact. The data set is classed as in vivo. The text has this:
10. Activity Against Argentine Ant (Linepithema humile), Harvester Ant (Pogonomyrmex Californicus), Acrobat Ant (Crematogaster Spp.), Carpenter Ant (Camponotus floridanus), Fire Ant (Solenopsis invicta), House Fly (Musca domestica), Stable Fly (Stomoxys calcitrans), Flesh Fly (Sarcophaga sp.), Yellowfever Mosquito (Aedes aegyptii), House Mosquito (Culex quinquefasciatus), Malaria Mosquito (Anopheles albimanus), German Cockroach (Blattella Germanica), Cat Flea (Ctenocephalides felis), and Brown Dog Tick (Rhipicephalus sanguineus) Via Glass Contact
Glass vials were treated with 0.5 ml of a solution of active ingredient in acetone and allowed to dry. Insects or ticks were placed into each vial together with some food and moisture supply.

In data set [10] the test system is Diamond Back Moth (Plutella xylostella). The experiment in a line: Activity against diamond back moth, cabbage leaf disk dip. Conditions: foliar, 300 ppm, leaf disk dipped, third instar larvae, after 72 h, read-out: mortality. The data set is classed as in vivo. The method, then: The active compounds were formulated in 50:50 acetone:water and 0.1% (vol/vol) Alkamuls EL 620 surfactant. A 6 cm leaf disk of cabbage leaves was dipped in the test solution for 3 seconds and allowed to air dry in a Petri plate lined with moist filter paper. The leaf disk was inoculated with 10 third instar larvae and kept at 25-27° C. and 50-60% humidity for 3 days. Mortality was assessed after 72 h of treatment.

Data set [11] concerns Mediterranean Fruitfly (Ceratitis capitata). The data set can be described thus: Activity against Mediterranean fruitfly, eggs in microtiterplates. It is filed as in vivo. Conditions: 144 h, eggs sprayed with 5 μl test solution, 6 days. The method, then: 50 to 80 eggs were placed into microtiterplates filled with 0.5% agar-agar and 14% diet in water. […] Mortality was assessed on the basis of the agility of the hatched larvae. Tests were replicated 2 times.

Where [12] appears, read: 10 ppm, water treatment, 4th-instar larvae.

Read-outs that look alike come from different tables or passages of the source.

In general, melting point refers to the temperature of the solid-liquid transition. A word on the mortality: it is the percentage killed.

Molecule `CCN(CC)S(=O)(=O)NC(=O)c1cccc(C)c1NC(=O)c1cc(Br)nn1-c1ncccc1Cl` registered a melting point of 191 °C.
Still for that read-out and setting: next, `Cc1cccc(C(=O)NS(=O)(=O)N(C)C)c1NC(=O)c1cc(C(F)(F)F)nn1-c1ncccc1Cl`: 183 °C.
The same measure, in the same setting: next, `CCS(C)=NC(=O)c1cc(C#N)cc(C)c1NC(=O)c1cc(C(F)(F)F)nn1-c1ncccc1Cl` (stereo not shown): 65 °C.
As to `CCN(CC)S(=O)(=O)NC(=O)c1cc(Cl)cc(C)c1NC(=O)c1cc(C(F)(F)F)nn1-c1ncccc1Cl` [I.1-37], in data set [1], the mortality at 10 ppm was more than 70%.
Regarding `Cc1cc(Cl)cc(C(=O)N=S(C(C)C)C(C)C)c1NC(=O)c1cc(C(F)(F)F)nn1-c1ncccc1Cl` [I.3-1], the mortality result in data set [2] is reported as “over 75%”.
Consider `Cc1cc(Cl)cc(C(=O)N=S(C)C)c1NC(=O)c1cc(Br)nn1-c1ncccc1Cl` [I.3-4], for which the mortality at 300 ppm is more than 90% in data set [3], more than 50% in data set [4] and more than 75% in data set [6]. The mortality at 2500 ppm in [5], in [7] and in [8] was more than 75% each time. In addition, the mortality at 10 ppm in data set [1] (setting [12]) and in data set [9] was more than 70% in each case.
Take `Cc1cccc(C(=O)N=S(C)C)c1NC(=O)c1cc(Br)nn1-c1ncccc1Cl` [I.3-7]: the mortality at 300 ppm in data set [4] is more than 50%; in data set [6] it was more than 75%; in data set [10], more than 75%. The mortality at 2500 ppm in data set [5], in data set [7] and in data set [8] was more than 75% in each case. Further, in data set [1] (setting [12]), the mortality at 10 ppm was more than 70%.
With `CCS(C)=NC(=O)c1cc(I)cc(C)c1NC(=O)c1cc(C(F)(F)F)nn1-c1ncccc1Cl` (stereo not shown) [I.3-30], the mortality at 300 ppm was more than 90% in data set [3], more than 50% in data set [4], more than 75% in data set [6] and more than 75% in [10]. Also, the mortality at 2500 ppm in [5], in data set [7], in data set [8] and in data set [11] was more than 75% throughout.

Source of the values: US20170015649A1, “N-Thio-anthranilamid compounds and their use as pesticides” (BASF SE, priority 2005, published 2017).
